In ChEMBL document CHEMBL1201862, “PubChem BioAssay data set” (2004):
Calls of active or inactive are those of the source.

Columns and labels:
fMet-Leu-Phe receptor = fMet-Leu-Phe receptor (Homo sapiens, UniProt P21462); experiment: formyl peptide receptor binders – dose response (AID 519); format: functional
[1] = viability of HCT116 lacking mutant beta-catenin – cell-based, human colon tumor, dose response (AID 1045); format: functional;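 also: HCT116 colon tumor cells with beta catenin knocked out; cells exposed to compound for 60 hours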
[2] = viability of PTEN-deleted HCT116 cells – cell-based, HCT116 PTEN knockout, dose response (AID 1047); format: functional;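 also: HCT116 colon tumor cells with PTEN knocked out; cells exposed to compound for 60 hours before readout; potency for loss of cell viability measured by luminescence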
Protein skinhead-1 = molecular target: T1, Protein skinhead-1 (Caenorhabditis elegans, UniProt P34707); format: functional
T1 sequence (P34707 whole entry): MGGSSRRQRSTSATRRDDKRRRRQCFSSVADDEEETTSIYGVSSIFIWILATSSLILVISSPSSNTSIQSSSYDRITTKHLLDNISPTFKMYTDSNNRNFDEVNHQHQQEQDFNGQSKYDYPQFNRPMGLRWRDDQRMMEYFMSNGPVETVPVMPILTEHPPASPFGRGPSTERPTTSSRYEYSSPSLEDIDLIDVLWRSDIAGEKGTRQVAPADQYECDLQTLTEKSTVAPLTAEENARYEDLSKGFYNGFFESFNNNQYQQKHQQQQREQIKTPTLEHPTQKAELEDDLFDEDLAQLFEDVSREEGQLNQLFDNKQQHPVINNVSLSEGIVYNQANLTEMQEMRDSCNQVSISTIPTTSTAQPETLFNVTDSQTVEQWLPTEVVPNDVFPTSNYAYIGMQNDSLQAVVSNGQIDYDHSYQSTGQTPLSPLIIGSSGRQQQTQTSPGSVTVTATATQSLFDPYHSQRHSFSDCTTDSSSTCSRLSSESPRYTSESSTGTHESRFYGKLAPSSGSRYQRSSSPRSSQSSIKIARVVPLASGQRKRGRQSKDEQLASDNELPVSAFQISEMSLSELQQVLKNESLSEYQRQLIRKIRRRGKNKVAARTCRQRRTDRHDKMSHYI

[3] = reduced cellular PGC1a acetyl-lysine signal – cell-based, cherry-picked samples, dose response (AID 720514); format: functional;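 also: potency may reflect raised or lowered acetylation signal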
[4] = cytotoxicity in MITF-independent A375 cells – cell-based, CellTiter-Glo luminescence, dry powder, set 4, counter-screen for MITF inhibitor project, dose response (AID 624364); format: functional; conditions: A-375;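 also: A375 melanoma cells are MITF independent so this is a counter screen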
[5] = viability loss in MITF-independent A375 cells – cell-based, CellTiter-Glo luminescence, dry powder, set 2, counter-screen for MITF inhibitor project, dose response (AID 624489); format: functional;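 also: actives are compounds lowering A375 viability meaning general cytotoxicity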
[6] = antileishmanial activity on axenic amastigotes – plate reader, dry powder, dose response (AID 651892); format: functional, cell-based
[7] = T. cruzi growth inhibition in host cells, dose response, cell-based, plate reader, dry powder, set 2 (AID 652275); format: functional
[8] = L6 myocyte viability loss – cell-based, plate reader, cherry-pick, cytotoxicity control, dose response (AID 651896); format: functional
[9] = African trypanosome bloodstream form growth inhibition – STIB900 strain, plate reader, cherry pick, dose response (AID 651893); format: functional, cell-based, Trypanosoma brucei rhodesiense; conditions: Trypanosoma brucei
[10] = intracellular Chagas parasite inhibition in myoblasts – Tulahuen strain, L-6 host cells, dry powder, dose response (AID 651890); format: functional, cell-based
[11] = antileishmanial activity on axenic amastigotes – plate reader, cherry pick, dose response (AID 651891); format: functional, cell-based; conditions: Leishmania donovani
[12] = African trypanosome bloodstream form growth inhibition – STIB900 strain, plate reader, dry powder, dose response (AID 651894); format: functional, cell-based
[13] = intracellular Trypanosoma cruzi inhibitors in host cells – cell-based, plate reader, cherry-pick samples, set 3, dose response (AID 651818); format: functional;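 also: compounds incubated with infected cells for about four days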
[14] = antimalarial activity against erythrocytic parasites – NF54 strain, plate reader, dry powder, dose response (AID 651889); format: functional, cell-based
[15] = host muscle cell viability loss – plate reader, dry powder, counter-screen for T. cruzi inhibitor project, dose response (AID 651895); format: functional, cell-based
[16] = Trypanosoma cruzi replication inhibitors in host cells – cell-based, plate reader, dry powder samples, dose response (AID 651845); format: functional
[17] = anti-trypanosomal activity in BESM host cells – imaging, CA-I/72 strain, bovine embryo skeletal muscle, dry powder, dose response (AID 651885); format: functional, cell-based
[18] = MITF Orthogonal Assay: SK-MEL-5 CTG Assay Measured in Cell-Based System Using Plate Reader - 2084-02_Inhibitor_Dose_DryPowder_Activity_Set7.; format: functional
[19] = inhibitors of TRPM1-promoter reporter in SK-MEL-5 – cell-based, luciferase, dry powder, set 8, MITF inhibitor project, dose response (AID 624430); format: functional
[20] = MITF: Counter assay: A375 proliferation Measured in Cell-Based System Using Plate Reader - 2084-03_Inhibitor_Dose_DryPowder_Activity_Set8.; format: functional; conditions: A-375
cells = conditions: HEK293
[21] = viability loss in HepG2 liver cells – cell-based, ATP luminescence, cherry-pick, set 6, cytotoxicity control, dose response (AID 1053125); format: functional
[22] = P. falciparum Dd2 growth inhibitors, dose response, SYBR Green, cherry-picked samples (AID 1159567); format: functional, cell-based
[23] = YAP1 overexpression rescue of CTGF inhibition – DLD1 cells, RT-qPCR, cherry-pick, mechanism study for YAP1 pathway inhibitor project, dose response (AID 1053127); format: functional, cell-based; conditions: DLD-1
[24] = CTGF mRNA reduction in DLD1 cells – cell-based, DLD1 colon cancer, RT-qPCR, cherry-pick, dose response (AID 1053122); format: functional; conditions: Cancer cell lines
[25] = mouse embryonic fibroblast toxicity – cell-based, plate reader, dry powder, set 2, cytotoxicity control, dose response (AID 652280); format: functional; conditions: NIH3T3
[26] = mouse fibroblast viability loss – cell-based, dry powder samples, cytotoxicity control, dose response (AID 651844); format: functional; conditions: NIH3T3
[27] = viability loss in HEK293 kidney cells – cell-based, cherry-picks, set 5, cytotoxicity control, dose response (AID 1053117); format: functional
[28] = viability loss in HepG2 hepatoma cells – cell-based, cherry-picks, set 5, cytotoxicity control, dose response (AID 1053118); format: functional
[29] = viability loss in A549 lung cancer cells – cell-based, cherry-picks, […], cytotoxicity control, dose response (AID 1053119); format: functional

Sequence of fMet-Leu-Phe receptor (P21462 whole entry): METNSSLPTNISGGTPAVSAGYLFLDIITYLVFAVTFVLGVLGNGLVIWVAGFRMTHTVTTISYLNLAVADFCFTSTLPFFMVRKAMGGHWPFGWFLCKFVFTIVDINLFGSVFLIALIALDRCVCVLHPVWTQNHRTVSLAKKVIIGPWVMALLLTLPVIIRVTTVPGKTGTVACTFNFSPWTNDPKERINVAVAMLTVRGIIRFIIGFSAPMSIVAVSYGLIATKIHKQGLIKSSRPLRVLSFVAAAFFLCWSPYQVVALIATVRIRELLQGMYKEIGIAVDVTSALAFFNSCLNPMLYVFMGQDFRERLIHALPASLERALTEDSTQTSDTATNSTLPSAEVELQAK

With `CCCC(=O)Nc1cc(-c2cn3cccnc3n2)ccc1OC` the Ki (fMet-Leu-Phe receptor) was > 66.7 µM (inactive).
With `Cc1[nH]c2ccccc2c1C(=O)/C=C/c1ccccc1` the EC50 [1] was 19.2 µM (active), the EC50 [2] was 22 µM (active) and the IC50 (Protein skinhead-1) was > 100 µM (inactive). The AC50 [3] was 29.8 µM (active).
With `O=C1C(Nc2ccccc2)=C(N2CCOCC2)C(=O)c2ccccc21` the AC50 [4] was > 70 µM (inactive), the AC50 [5] was 65.7 µM (active) and the AC50 ([5]; A-375) was > 70 µM (inactive).
In the case of `C[C@H]1CN([C@@H](C)CO)C(=O)c2cccc(NC(=O)c3ccncc3)c2O[C@H]1CN(C)Cc1ccc(Oc2ccccc2)cc1`, the IC50 [6] is reported as > 100 µM (inactive), the AC50 [7] is reported as 0.0116 µM (active) and the IC50 [8] is reported as 43.7 µM (inactive). The IC50 [9] was 6.15 µM (inactive), the IC50 [10] was 0.059 µM (active) and the IC50 [11] was > 100 µM (inactive). The IC50 [12] was 3.62 µM (inactive), the AC50 [13] was 0.08 µM (active) and the IC50 [14] was 2.94 µM (inactive). For the same molecule, the IC50 [15] was 47.5 µM (inactive), the AC50 [16] was 0.0252 µM (active) and the IC50 [17] was 0.00042 µM (active).
For `O=C1C=C(Nc2ccccc2Cl)C(=O)c2ccccc21`, the AC50 [18] was 0.172 µM (active), the AC50 [19] was 5.41 µM (active) and the AC50 [20] was > 70 µM (inactive).
With `Cc1ccc(OCC(=O)NNc2c3ccccc3nc3ccccc23)cc1` the AC50 (cells) was 27.7 µM (active) and the AC50 [21] was > 52 µM (inactive).
For `CO[C@@H]1CN(C)C(=O)c2ccc(NC(=O)c3nc4ccccc4s3)cc2OC[C@@H](C)N(Cc2cccnc2)C[C@H]1C`, the AC50 [22] was 4.6 µM (active), the AC50 [23] was 19.6 µM (active) and the AC50 [24] was 5.03 µM (active).
In the case of `CC(C)N1C[C@H](C)[C@@H](CN(C)Cc2ccc(Oc3ccccc3)cc2)Oc2c(NC(=O)C3CCNCC3)cccc2C1=O`, the AC50 [7] is reported as 0.983 µM (active), the AC50 [25] is reported as 8.99 µM (active) and the AC50 [26] is reported as 8.99 µM (active). For the same molecule, the AC50 [16] was 0.983 µM (active).
With `C[C@H]1CN([C@@H](C)CO)C(=O)c2cccc(NC(=O)Nc3ccc(C(F)(F)F)cc3)c2O[C@@H]1CN(C)C(=O)Nc1cccc2ccccc12` the AC50 [27] was 19.8 µM (active), the AC50 [13] was 4.5 µM (active) and the AC50 [28] was 25 µM (active). The AC50 [29] was 29.7 µM (active).
